# According to ChEMBL document CHEMBL2321733, “[3a,4]-Dihydropyrazolo[1,5a]pyrimidines: Novel, Potent, and Selective Phosphatidylinositol-3-kinase β Inhibitors” (ACS Med Chem Lett, 2013):
# Experiments:
# [1] = target: T1, Phosphatidylinositol 4,5-bisphosphate 3-kinase catalytic subunit beta isoform (Homo sapiens, UniProt P42338); assay: Inhibition of PI3Kbeta human in PTEN-null MDA-MB-468 cells assessed as reduction of AKT phosphorylation at Ser 473 in absence of serum; format: cell-based
# [2] = target: T1, Phosphatidylinositol 4,5-bisphosphate 3-kinase catalytic subunit beta isoform; assay: Inhibition of PI3Kbeta human in PTEN-null MDA-MB-468 cells assessed as reduction of AKT phosphorylation at Ser 473 in presence of serum; format: cell-based
# [3] = Plasma protein binding in rat serum by equilibrium dialysis; format: ADME, cell-free; details: read-out: PPB (converted)
# [4] = Plasma protein binding in mouse serum by equilibrium dialysis; format: ADME, cell-free; details: read-out: PPB (converted)
# [5] = Plasma protein binding in human serum by equilibrium dialysis; format: ADME, cell-free; details: read-out: PPB (converted)
# [6] = target: T1, Phosphatidylinositol 4,5-bisphosphate 3-kinase catalytic subunit beta isoform; assay: Inhibition of PI3Kbeta (unknown origin)
# [7] = target: Phosphatidylinositol 4,5-bisphosphate 3-kinase catalytic subunit gamma isoform (Homo sapiens, UniProt P48736); assay: Inhibition of PI3Kgamma (unknown origin)
# Phosphatidylinositol 4,5-bisphosphate 3-kinase catalytic subunit gamma isoform, sequence (P48736 whole entry, canonical isoform): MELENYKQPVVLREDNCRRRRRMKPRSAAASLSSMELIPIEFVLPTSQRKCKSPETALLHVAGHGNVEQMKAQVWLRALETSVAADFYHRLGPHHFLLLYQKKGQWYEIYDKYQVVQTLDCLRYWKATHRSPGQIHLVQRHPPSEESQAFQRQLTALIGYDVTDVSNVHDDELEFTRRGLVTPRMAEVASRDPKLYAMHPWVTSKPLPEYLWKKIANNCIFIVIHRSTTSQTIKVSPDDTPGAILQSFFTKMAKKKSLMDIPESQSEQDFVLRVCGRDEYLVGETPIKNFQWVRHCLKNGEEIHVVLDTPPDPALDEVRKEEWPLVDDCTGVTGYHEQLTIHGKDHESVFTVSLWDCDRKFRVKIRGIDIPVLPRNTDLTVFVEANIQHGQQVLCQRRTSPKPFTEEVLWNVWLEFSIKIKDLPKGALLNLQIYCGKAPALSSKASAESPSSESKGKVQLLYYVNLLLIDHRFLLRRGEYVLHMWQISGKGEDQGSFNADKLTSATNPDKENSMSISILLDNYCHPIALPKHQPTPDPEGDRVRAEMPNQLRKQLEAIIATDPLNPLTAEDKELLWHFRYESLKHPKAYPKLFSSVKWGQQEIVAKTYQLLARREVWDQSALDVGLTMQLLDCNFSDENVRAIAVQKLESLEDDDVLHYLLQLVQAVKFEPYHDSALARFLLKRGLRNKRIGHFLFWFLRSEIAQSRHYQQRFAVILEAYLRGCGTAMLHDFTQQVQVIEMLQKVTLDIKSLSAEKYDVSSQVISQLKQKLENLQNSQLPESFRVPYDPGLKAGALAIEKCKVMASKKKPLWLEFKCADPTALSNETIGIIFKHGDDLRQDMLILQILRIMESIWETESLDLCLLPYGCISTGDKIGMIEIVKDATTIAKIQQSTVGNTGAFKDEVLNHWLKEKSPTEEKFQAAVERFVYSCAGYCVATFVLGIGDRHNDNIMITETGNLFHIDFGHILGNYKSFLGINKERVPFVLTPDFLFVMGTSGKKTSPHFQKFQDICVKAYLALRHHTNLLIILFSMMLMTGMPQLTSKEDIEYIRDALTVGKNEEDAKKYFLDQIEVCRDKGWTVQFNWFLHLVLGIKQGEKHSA
# [8] = target: Phosphatidylinositol 4,5-bisphosphate 3-kinase catalytic subunit alpha isoform (Homo sapiens, UniProt P42336); assay: Inhibition of PI3Kalpha (unknown origin)
# Phosphatidylinositol 4,5-bisphosphate 3-kinase catalytic subunit alpha isoform, sequence (P42336 whole entry, canonical isoform): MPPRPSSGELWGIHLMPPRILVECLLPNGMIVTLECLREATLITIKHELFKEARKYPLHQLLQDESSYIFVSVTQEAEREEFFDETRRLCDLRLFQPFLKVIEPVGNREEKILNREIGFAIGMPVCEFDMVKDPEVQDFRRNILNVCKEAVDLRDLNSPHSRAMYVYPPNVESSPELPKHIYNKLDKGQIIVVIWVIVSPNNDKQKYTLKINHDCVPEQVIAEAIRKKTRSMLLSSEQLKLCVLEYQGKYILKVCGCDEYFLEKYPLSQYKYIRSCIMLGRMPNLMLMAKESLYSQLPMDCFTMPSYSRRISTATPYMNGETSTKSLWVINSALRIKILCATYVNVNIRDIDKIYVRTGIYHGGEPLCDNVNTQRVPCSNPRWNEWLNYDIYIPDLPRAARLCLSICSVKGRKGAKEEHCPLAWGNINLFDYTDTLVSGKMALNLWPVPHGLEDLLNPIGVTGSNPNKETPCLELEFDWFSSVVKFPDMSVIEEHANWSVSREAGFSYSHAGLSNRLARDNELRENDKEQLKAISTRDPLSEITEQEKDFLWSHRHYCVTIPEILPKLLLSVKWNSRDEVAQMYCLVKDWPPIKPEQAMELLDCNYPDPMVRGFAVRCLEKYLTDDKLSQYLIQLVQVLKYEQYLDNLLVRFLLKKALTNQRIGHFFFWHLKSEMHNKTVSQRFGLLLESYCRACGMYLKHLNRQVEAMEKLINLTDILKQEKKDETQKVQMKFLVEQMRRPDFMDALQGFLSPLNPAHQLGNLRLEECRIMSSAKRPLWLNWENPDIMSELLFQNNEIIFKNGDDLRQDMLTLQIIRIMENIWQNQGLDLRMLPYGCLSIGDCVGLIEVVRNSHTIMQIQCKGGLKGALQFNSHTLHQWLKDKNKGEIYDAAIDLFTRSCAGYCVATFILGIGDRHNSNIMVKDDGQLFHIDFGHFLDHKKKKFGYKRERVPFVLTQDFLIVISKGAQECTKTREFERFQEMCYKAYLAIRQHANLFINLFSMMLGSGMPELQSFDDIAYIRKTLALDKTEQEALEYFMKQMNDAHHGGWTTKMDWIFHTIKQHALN
# [9] = target: T2, Phosphatidylinositol 4,5-bisphosphate 3-kinase catalytic subunit delta isoform (Homo sapiens, UniProt O00329); assay: Inhibition of PI3Kdelta (unknown origin)
# T2 sequence (O00329 whole entry): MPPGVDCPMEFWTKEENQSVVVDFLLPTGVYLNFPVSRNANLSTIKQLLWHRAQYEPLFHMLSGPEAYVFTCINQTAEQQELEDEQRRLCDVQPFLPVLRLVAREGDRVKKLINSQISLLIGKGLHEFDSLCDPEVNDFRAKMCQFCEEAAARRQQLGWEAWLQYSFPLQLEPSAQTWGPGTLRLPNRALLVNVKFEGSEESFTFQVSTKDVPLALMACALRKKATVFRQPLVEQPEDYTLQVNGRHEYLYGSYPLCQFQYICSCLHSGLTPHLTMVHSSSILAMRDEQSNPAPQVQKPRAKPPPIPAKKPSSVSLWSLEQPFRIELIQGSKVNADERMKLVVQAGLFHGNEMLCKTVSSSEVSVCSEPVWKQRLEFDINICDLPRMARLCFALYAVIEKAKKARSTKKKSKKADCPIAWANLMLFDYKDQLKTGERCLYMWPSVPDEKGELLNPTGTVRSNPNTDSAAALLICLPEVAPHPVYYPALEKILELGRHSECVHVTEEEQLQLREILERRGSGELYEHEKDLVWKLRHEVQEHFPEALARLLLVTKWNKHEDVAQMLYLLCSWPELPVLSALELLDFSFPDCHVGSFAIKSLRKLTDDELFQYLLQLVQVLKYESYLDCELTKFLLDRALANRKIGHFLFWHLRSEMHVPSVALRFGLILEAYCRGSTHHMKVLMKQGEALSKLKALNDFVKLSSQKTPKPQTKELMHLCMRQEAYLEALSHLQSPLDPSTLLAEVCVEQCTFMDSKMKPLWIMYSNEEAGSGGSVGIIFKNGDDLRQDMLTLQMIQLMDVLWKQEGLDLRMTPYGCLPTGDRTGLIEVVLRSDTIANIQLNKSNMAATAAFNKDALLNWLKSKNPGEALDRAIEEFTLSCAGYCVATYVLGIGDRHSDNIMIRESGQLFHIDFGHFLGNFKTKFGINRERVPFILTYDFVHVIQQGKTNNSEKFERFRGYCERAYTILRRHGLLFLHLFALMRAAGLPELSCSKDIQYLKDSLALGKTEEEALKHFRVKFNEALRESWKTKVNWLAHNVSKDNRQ
# [10] = Oral bioavailability mouse; format: ADME, organism-based; details: in vivo
# [11] = system: Mus musculus; assay: Dose normalized AUC in po dosed mouse; format: ADME, organism-based; details: in vivo
# [12] = Clearance in mouse; format: ADME, organism-based; details: in vivo
# [13] = Clearance in monkey; format: ADME, organism-based, Macaca mulatta; details: rhesus monkey, in vivo
# [14] = Permeability of the compound across MDCK cells; format: ADME, cell-based, Canis lupus familiaris; details: dog, read-out: permeability
# [15] = Aqueous solubility of the compound; format: physicochemical
# [16] = target: T1, Phosphatidylinositol 4,5-bisphosphate 3-kinase catalytic subunit beta isoform; assay: Inhibition of PI3Kbeta human in PTEN wild type HCC1954 cells assessed as reduction of AKT phosphorylation at Ser 473; format: cell-based
# [17] = Clearance in rat; format: ADME, organism-based; details: in vivo
# T1 sequence (P42338 whole entry, canonical isoform): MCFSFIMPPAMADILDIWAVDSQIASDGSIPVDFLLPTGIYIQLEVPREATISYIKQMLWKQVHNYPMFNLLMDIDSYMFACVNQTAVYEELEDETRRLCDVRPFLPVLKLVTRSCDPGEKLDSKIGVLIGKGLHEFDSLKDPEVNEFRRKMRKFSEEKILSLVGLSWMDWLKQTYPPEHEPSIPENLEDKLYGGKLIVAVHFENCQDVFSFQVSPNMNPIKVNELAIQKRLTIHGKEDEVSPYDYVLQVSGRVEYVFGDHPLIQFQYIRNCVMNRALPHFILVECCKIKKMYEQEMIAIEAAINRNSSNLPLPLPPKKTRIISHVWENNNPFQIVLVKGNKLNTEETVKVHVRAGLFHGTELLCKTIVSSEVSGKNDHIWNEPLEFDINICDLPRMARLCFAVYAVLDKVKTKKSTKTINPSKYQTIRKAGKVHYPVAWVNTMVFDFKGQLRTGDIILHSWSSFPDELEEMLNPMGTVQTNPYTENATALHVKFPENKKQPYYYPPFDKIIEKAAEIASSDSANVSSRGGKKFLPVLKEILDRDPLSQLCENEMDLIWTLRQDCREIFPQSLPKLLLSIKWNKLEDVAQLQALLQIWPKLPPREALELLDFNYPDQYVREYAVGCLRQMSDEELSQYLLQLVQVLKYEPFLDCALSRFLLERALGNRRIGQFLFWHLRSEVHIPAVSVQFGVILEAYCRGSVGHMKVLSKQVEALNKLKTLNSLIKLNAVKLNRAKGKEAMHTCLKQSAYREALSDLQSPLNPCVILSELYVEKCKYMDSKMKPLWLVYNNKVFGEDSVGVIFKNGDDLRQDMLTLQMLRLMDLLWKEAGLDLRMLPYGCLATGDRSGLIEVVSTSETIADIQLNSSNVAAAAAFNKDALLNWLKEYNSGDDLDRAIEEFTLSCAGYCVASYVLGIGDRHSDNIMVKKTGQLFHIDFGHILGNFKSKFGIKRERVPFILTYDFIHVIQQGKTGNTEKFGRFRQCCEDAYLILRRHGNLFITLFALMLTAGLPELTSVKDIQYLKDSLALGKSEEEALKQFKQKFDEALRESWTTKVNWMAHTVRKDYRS
SMILES,EC50 [2] [nM],IC50 [6] [nM],IC50 [7] [nM],IC50 [8] [nM],IC50 [9] [nM],EC50 [16] [nM],also measured
Cc1c(Cn2c(C)nc(=O)c3sc(N4CCOCC4)nc32)cccc1C(F)(F)F,15.8,0.631,–,–,–,–,EC50 [1]: 6.31 nM; fraction unbound [3]: 0.254; fraction unbound [4]: 0.118; fraction unbound [5]: 0.137
CNc1cc(N2CCOCC2)nc2c(Cc3cccc(C(F)(F)F)c3C)c(C)nn12,–,> 3160,> 6310,> 1580,> 631,–,–
Cc1nn2c(O)cc(N3CCOCC3)nc2c1Cc1cccc(C(F)(F)F)c1C,1580,0.398,316,316,25.1,> 15800,bioavailability [10]: 51%; AUC/dose [11]: 2321 ng·h/mL/mg/kg; clearance [12]: 3.7 mL/min/kg; clearance [13]: 0.33 mL/min/kg; EC50 [1]: 31.6 nM; fraction unbound [3]: ≤ 0.001; fraction unbound [4]: ≤ 0.001; fraction unbound [5]: ≤ 0.001; Papp [14]: 75.3 ×10⁻⁶ cm/s; solubility [15]: 134 µM; clearance [17]: 6.5 mL/min/kg
Cc1nn2c(O)cc(N3CCOCC3)nc2c1Cc1cccc2ccccc12,1000,1,631,316,25.1,> 31600,–
Cc1nn2c(O)cc(C3CCOCC3)nc2c1Cc1cccc(C(F)(F)F)c1C,10000,3.98,2510,> 1580,126,> 31600,–
Cc1nn2c(O)cc(N3CCOCC3=O)nc2c1Cc1cccc(C(F)(F)F)c1C,–,316,3160,251,158,–,–
Cc1nn2c(O)cc(N3CCOC(C)C3)nc2c1Cc1cccc(C(F)(F)F)c1C (centres undefined),–,2.51,398,200,15.8,–,–
Cc1c(Cc2cnn3c(O)cc(N4CCOCC4)nc23)cccc1C(F)(F)F,1000,5.01,501,316,20,> 31600,EC50 [1]: 63.1 nM
Cc1c(Cc2cnn3c(O)cc(-c4ccncc4)nc23)cccc1C(F)(F)F,3160,2.51,316,501,100,> 31600,EC50 [1]: 25.1 nM
CCc1nn2c(O)cc(-c3ccncc3)nc2c1Cc1cccc(Cl)c1Cl,20000,0.631,398,158,20,> 31600,–
CCc1nn2c(O)cc(C3CCOCC3)nc2c1Cc1cccc(Cl)c1Cl,–,12.6,> 7940,> 1580,> 398,–,–
Oc1cc(N2CCOCC2)nc2c(Cc3cccc(Cl)c3Cl)c(C(F)(F)F)nn12,5010,0.398,251,200,6.31,> 31600,–
Oc1cc(-c2ccncc2)nc2c(Cc3cccc(Cl)c3Cl)c(C(F)(F)F)nn12,–,2.51,398,631,79.4,–,–
Oc1cc(C2CCOCC2)nc2c(Cc3cccc(Cl)c3Cl)c(C(F)(F)F)nn12,–,6.31,> 6310,2510,100,–,–
COc1nn2c(O)cc(-c3ccncc3)nc2c1Cc1cccc(Cl)c1Cl,12600,1.26,501,158,25.1,> 31600,EC50 [1]: 158 nM
Nc1nn2c(O)cc(C3CCOCC3)nc2c1Cc1cccc(Cl)c1Cl,2000,7.94,> 3980,1580,631,> 31600,–
COc1cc(N2CCOCC2)nc2c(Cc3cccc(C(F)(F)F)c3C)cnn12,–,1000,> 5010,> 5010,> 631,–,–
Cc1c(Cc2cnn3c(Cl)cc(N4CCOCC4)nc23)cccc1C(F)(F)F,–,316,> 5010,> 5010,> 631,–,–
Cc1nn2ccc(C3CCOCC3)nc2c1Cc1cccc(C(F)(F)F)c1C,–,794,2000,> 1580,> 501,–,–
Cc1nn2c(C(=O)O)cc(N3CCOCC3)nc2c1Cc1cccc(C(F)(F)F)c1C,1000,5.01,> 6310,1580,39.8,> 31600,–
Cc1nn2c(C(N)=O)cc(N3CCOCC3)nc2c1Cc1cccc(C(F)(F)F)c1C,> 31600,25.1,> 6310,> 6310,> 631,> 31600,–
Cc1nn2c(C#N)cc(N3CCOCC3)nc2c1Cc1cccc(C(F)(F)F)c1C,–,> 1260,> 3160,> 1000,> 251,–,–
Cc1nn2c(N)cc(N3CCOCC3)nc2c1Cc1cccc(C(F)(F)F)c1C,1000,39.8,> 1480,> 2000,158,> 31600,–
Cc1nn2c(NO)cc(C3CCOCC3)nc2c1Cc1cccc(C(F)(F)F)c1C,–,39.8,> 6310,> 1580,251,–,–
Cc1nn2c(NCCO)cc(C3CCOCC3)nc2c1Cc1cccc(C(F)(F)F)c1C,–,1260,5010,> 1580,> 631,–,–
CC(=O)Nc1cc(N2CCOCC2)nc2c(Cc3cccc(C(F)(F)F)c3C)c(C)nn12,–,> 1260,> 5010,> 2000,> 631,–,–
Cc1nn2c(NC(N)=O)cc(N3CCOCC3)nc2c1Cc1cccc(C(F)(F)F)c1C,> 31600,20,> 6310,> 6310,> 631,> 31600,–
Cc1c(Cc2c(=O)[nH]n3c(=O)cc(C4CCOCC4)[nH]c23)cccc1C(F)(F)F,–,63.1,> 5010,> 2000,> 631,–,–
